These results are taken from publication PMC9737391, “Trifluoromethylcinnamanilide Michael Acceptors for Treatment of Resistant Bacterial Infections” (International Journal of Molecular Sciences, 2022).

pIC50: −log10 of the molar value. Values after ≈ are worked out from the molar mass of the structure shown.

A short description of data set [1]: Lipophilicity determination by RP-HPLC. It is filed as physicochemical. Particulars: for log k: RP-HPLC, logarithm of capacity factor k. On the procedure:
It is evident from the graphs in Figure 1 that the correlation coefficients of the dependences of log k/log D6.5/log D7.4 have a value of r = 0.999 (n = 32), which means that the investigated compounds behave insignificantly differently in aqueous media with different pH. Moreover, lipophilicity was calculated as log P and Clog P using two prediction programs. […] Therefore, only log P values predicted by ACD/Percepta can be used for correlations with experimental values. These matches are shown in the graphs in Figure 2, and according to the correlation coefficient r~0.940 (n = 32), it can be argued that even the predicted lipophilicity values correlate with the experimentally measured ones. However, the largest variations were observed (no difference for series 1, 2) for compounds substituted with 2-Cl, 2-CF3, 2,5-Cl, 4-F, 4-CF3, and 3,5-F, 3,5-Cl. These are mainly substituents capable of forming hydrogen and other types of non-bonding interactions both with the surrounding environment and within the molecule. Overall, series 1 (3-CF3) is less lipophilic than series 2 (4-CF3), but the differences in the experimental data are insignificant. Unsubstituted derivatives 1a/2a are the least lipophilic compounds, while derivatives 1o/2o (3,5-Cl) and 1p/2p (3,5-CF3) are the most lipophilic compounds.
Experimental determination of lipophilicity values (log k, log D6.5, and log D7.4) was performed under the same conditions and on the same device as described by Strharsky et al..

For the next data set, the system named is S. aureus ATCC 29213. The data set can be described thus: MTT assay, inhibition of bacterial respiration. In kind it is cell-based, Staphylococcus aureus. The source says:
The MTT assay can be used to assess cell growth by measuring respiration. Respiratory activity of bacterial cells (which is finally reflected in their viability) less than 70% after exposure to the MIC values for each tested compound is considered as a positive result of this assay. This low level of cell oxidative metabolism indicates inhibition of cell growth by inhibition of respiration. The lowest multiples of MIC values that achieved more than 70% inhibition of S. aureus ATCC 29213 viability (%) are shown in Table 3.
The percent inhibition of respiration of S. aureus ATCC 29213 was determined through the MTT assay. The assay was performed as described recently. The percent viability is calculated through the comparison of a measured value and that of the uninhibited control: % viability = OD570E/OD570P × 100, where OD570E is the reading from the compound-exposed cells, while OD570P is the reading from the uninhibited cells (positive control). Cytotoxic potential is determined by a percent viability of <70% [46, 47].

The test system of data set [2] is methicillin-resistant S. aureus 63718 (MRSA3). The data set can be described thus: MIC, microtitration broth method. In kind it is cell-based. Particulars: Staphylococcus aureus; MRSA 63718.
Data set [3] has the same test system. The data set can be described thus: MBC, agar aliquot subculture method. It is filed as cell-based. The settings on record: Staphylococcus aureus; MRSA 63718.
A further data set relates to M. smegmatis ATCC 700084. The data set can be described thus: In vitro antimycobacterial evaluation (MIC). In kind it is cell-based, Mycobacterium smegmatis. The settings on record: Mycolicibacterium smegmatis, ATCC700084.
Data set [4] deals with human monocytic leukemia cell line THP-1. The data set can be described thus: In vitro cell viability (cytotoxicity screening). In kind it is cell-based. The settings on record: 24 h, medium with 10% FBS, ± SD, n = 6. On the procedure: The investigated anilides can be divided into three groups. […] Higher concentrations (than 10 or 30 µM) were not possible to evaluate due to precipitation of the tested compounds in water medium. Based on all these observations, it can be concluded that the high antimicrobial activity of 3,5-CF3-substituted compounds is associated with significant cytotoxic effect against eukaryotic cells. On the other hand, the other still effective compounds, especially agents 1j and 1o, have an insignificant toxic effect, which makes them interesting for further study.
Human monocytic leukemia THP-1 cells obtained from the European Collection of Cell Cultures (ECACC, Salisbury, UK) were used for in vitro antiproliferative assays. A recently described procedure was used.

For data set [5], the system named is methicillin-resistant S. aureus SA 630 (MRSA2). The data set can be described thus: MIC, microtitration broth method. In kind it is cell-based. Particulars: Staphylococcus aureus; MRSA SA 630.
For data set [6] the test system is unchanged. The data set can be described thus: MBC, agar aliquot subculture method. It is filed as cell-based. The settings on record: Staphylococcus aureus; MRSA SA 630.
In data set [7] the test system is methicillin-resistant S. aureus SA 3202 (MRSA1). The data set can be described thus: MBC, agar aliquot subculture method. In kind it is cell-based. The settings on record: Staphylococcus aureus; MRSA SA 3202.
Data set [8] relates to Staphylococcus aureus ATCC 29213. The data set can be described thus: MBC, agar aliquot subculture method. Particulars: ATCC29213, S. aureus ATCC 29213. It is filed as cell-based.
The test system of data set [9] is methicillin-resistant S. aureus SA 3202 (MRSA1). The data set can be described thus: MIC, microtitration broth method. It is filed as cell-based. Particulars: Staphylococcus aureus; MRSA SA 3202.
For data set [10], the system named is Staphylococcus aureus ATCC 29213. The data set can be described thus: MIC, microtitration broth method. In kind it is cell-based. The settings on record: ATCC29213, S. aureus ATCC 29213.

In data set [1], `O=C(/C=C/c1cccc(C(F)(F)F)c1)Nc1ccccc1` [1a, (2E)-N-Phenyl-3-[3-(trifluoromethyl)phenyl]prop-2-enamide] displayed a log k of 0.5234.
`O=C(/C=C/c1cccc(C(F)(F)F)c1)Nc1ccccc1F` [1b, (2E)-N-(2-Fluorophenyl)-3-[3-(trifluoromethyl)phenyl]prop-2-enamide] yielded a melting point of 115 to 117 °C. For the same molecule, the log k in data set [1] turned out to be 0.5375.
`O=C(/C=C/c1cccc(C(F)(F)F)c1)Nc1ccc(F)cc1` [1d, (2E)-N-(4-Fluorophenyl)-3-[3-(trifluoromethyl)phenyl]prop-2-enamide]: the log k in data set [1] is 0.5760.
As to `O=C(/C=C/c1cccc(C(F)(F)F)c1)Nc1ccccc1Cl` [1e, (2E)-N-(2-Chlorophenyl)-3-[3-(trifluoromethyl)phenyl]prop-2-enamide], the melting point lay within 118 to 120 °C. In data set [1], this molecule registered a log k of 0.6568.
On to `O=C(/C=C/c1cccc(C(F)(F)F)c1)Nc1ccccc1C(F)(F)F` [1h, (2E)-N-[2-(Trifluoromethyl)phenyl]-3-[3-(trifluoromethyl)phenyl]prop-2-enamide], for which the melting point lay in the range of 111 to 113 °C. The molecule further yielded a log k in [1] of 0.5710.
As to `O=C(/C=C/c1cccc(C(F)(F)F)c1)Nc1cccc(C(F)(F)F)c1` [1i, (2E)-N,3-bis[3-(Trifluoromethyl)phenyl]prop-2-enamide], in the data set with S. aureus ATCC 29213, the “Conc.: lowest multiple of MIC with at least 70% inhibition of respiratory activity” value is 1 × MIC. Further, the “Conc.: the same concentration as multiple of MBC” value in the data set on S. aureus ATCC 29213 is given as 0.5 × MBC. Besides, the MIC in [2] turned out to be 2.78 µM (≈ 0.999 µg/mL); against M. smegmatis ATCC 700084, 11.1 µM (≈ 3.99 µg/mL); in [5] it was 2.78 µM (≈ 0.999 µg/mL); in data set [9] it was 11.1 µM (≈ 3.99 µg/mL); in data set [10], 11.1 µM (≈ 3.99 µg/mL). Moreover, the MBC was 22.3 µM (≈ 8.01 µg/mL) in [3], 2.78 µM (≈ 0.999 µg/mL) in data set [6], 11.1 µM (≈ 3.99 µg/mL) in [7] and 22.3 µM (≈ 8.01 µg/mL) in data set [8]. The molecule further showed a pIC50 in data set [4] below 5.00. In data set [1], this molecule registered a log k of 0.8807.
For `O=C(/C=C/c1cccc(C(F)(F)F)c1)Nc1ccc(F)cc1F` [1k, (2E)-N-(2,4-Difluorophenyl)-3-[3-(trifluoromethyl)phenyl]prop-2-enamide], the melting point was in the range of 143 to 145 °C. The log k in data set [1] was 0.5906.
The matching figures for `O=C(/C=C/c1cccc(C(F)(F)F)c1)Nc1cc(F)cc(F)c1` [1l, (2E)-N-(3,5-Difluorophenyl)-3-[3-(trifluoromethyl)phenyl]prop-2-enamide]: 131 to 133 °C and 0.8186.
The corresponding values for `O=C(/C=C/c1cccc(C(F)(F)F)c1)Nc1ccc(Cl)cc1Cl` [1m, (2E)-N-(2,4-Dichlorophenyl)-3-[3-(trifluoromethyl)phenyl]prop-2-enamide] are 134 to 136 °C and 0.9782.
The matching figures for `O=C(/C=C/c1cccc(C(F)(F)F)c1)Nc1cc(Cl)ccc1Cl` [1n, (2E)-N-(2,5-Dichlorophenyl)-3-[3-(trifluoromethyl)phenyl]prop-2-enamide]: 145 to 147 °C and 0.9612.
In the case of `O=C(/C=C/c1ccc(C(F)(F)F)cc1)Nc1ccccc1F` [2b, (2E)-N-(2-Fluorophenyl)-3-[4-(trifluoromethyl)phenyl]prop-2-enamide], the melting point is 164 to 166 °C. Further, the log k in data set [1] was 0.5515.
`O=C(/C=C/c1ccc(C(F)(F)F)cc1)Nc1cccc(F)c1` [2c, (2E)-N-(3-Fluorophenyl)-3-[4-(trifluoromethyl)phenyl]prop-2-enamide] registered a melting point of 146 to 148 °C. In data set [1], this molecule returned a log k of 0.6462.
With `O=C(/C=C/c1ccc(C(F)(F)F)cc1)Nc1ccc(F)cc1` [2d, (2E)-N-(4-Fluorophenyl)-3-[4-(trifluoromethyl)phenyl]prop-2-enamide], the melting point lay in the range of 149 to 151 °C. For the same molecule, the log k in [1] came out at 0.5887.
The corresponding values for `O=C(/C=C/c1ccc(C(F)(F)F)cc1)Nc1ccccc1Cl` [2e, (2E)-N-(2-Chlorophenyl)-3-[4-(trifluoromethyl)phenyl]prop-2-enamide] are 171 to 173 °C and 0.6614.
In turn, `O=C(/C=C/c1ccc(C(F)(F)F)cc1)Nc1cccc(Cl)c1` [2f, (2E)-N-(3-Chlorophenyl)-3-[4-(trifluoromethyl)phenyl]prop-2-enamide] came in with a melting point of 150 to 152 °C. The same molecule gave a log k in [1] of 0.8095.
The matching figures for `O=C(/C=C/c1ccc(C(F)(F)F)cc1)Nc1ccc(Cl)cc1` [2g, (2E)-N-(4-Chlorophenyl)-3-[4-(trifluoromethyl)phenyl]prop-2-enamide]: 185 to 187 °C and 0.8054.
The matching figures for `O=C(/C=C/c1ccc(C(F)(F)F)cc1)Nc1ccccc1C(F)(F)F` [2h, (2E)-N-[2-(Trifluoromethyl)phenyl]-3-[4-(trifluoromethyl)phenyl]prop-2-enamide]: 189 to 191 °C and 0.5798.
`O=C(/C=C/c1ccc(C(F)(F)F)cc1)Nc1ccc(C(F)(F)F)cc1` [2j, (2E)-N,3-bis[4-(Trifluoromethyl)phenyl]prop-2-enamide] displayed a melting point of 192 to 194 °C. Also, the log k in [1] is recorded as 0.9319.
The corresponding values for `O=C(/C=C/c1ccc(C(F)(F)F)cc1)Nc1ccc(F)cc1F` [2k, (2E)-N-(2,4-Difluorophenyl)-3-[4-(trifluoromethyl)phenyl]prop-2-enamide] are 141 to 143 °C and 0.6011.
The corresponding values for `O=C(/C=C/c1ccc(C(F)(F)F)cc1)Nc1cc(F)cc(F)c1` [2l, (2E)-N-(3,5-Difluorophenyl)-3-[4-(trifluoromethyl)phenyl]prop-2-enamide] are 188 to 190 °C and 0.8253.
The matching figures for `O=C(/C=C/c1ccc(C(F)(F)F)cc1)Nc1ccc(Cl)cc1Cl` [2m, (2E)-N-(2,4-Dichlorophenyl)-3-[4-(trifluoromethyl)phenyl]prop-2-enamide]: 188 to 190 °C and 0.9735.
For `O=C(/C=C/c1ccc(C(F)(F)F)cc1)Nc1cc(Cl)ccc1Cl` [2n, (2E)-N-(2,5-Dichlorophenyl)-3-[4-(trifluoromethyl)phenyl]prop-2-enamide], the melting point lay in the range of 180 to 182 °C. In data set [1], this molecule came in with a log k of 0.9583.
The matching figures for `O=C(/C=C/c1ccc(C(F)(F)F)cc1)Nc1cc(Cl)cc(Cl)c1` [2o, (2E)-N-(3,5-Dichlorophenyl)-3-[4-(trifluoromethyl)phenyl]prop-2-enamide]: 177 to 179 °C and 1.2024.
In [1], “(2E)-N-Phenyl-3-[3-(trifluoromethyl)phenyl]prop-2-enamide [2a]” registered a log k of 0.5351. In addition, the “log D6.5” value in data set [1] (pH 6.5) was 0.4751. Moreover, in data set [1] (pH 7.4), the “log D7.4” value was 0.4684.

The term melting point denotes the temperature of the solid-liquid transition. A word on the MIC: it is the smallest concentration in the dilution series that meets the test's criterion for growth inhibition. A higher MIC goes with weaker potency. Broadly, the MBC is the lowest tested concentration that kills the bacteria rather than only halting them. A high value points to weaker bactericidal potency. One may read the pIC50 as the negative decadic logarithm of the IC50, by convention in mol/L. Lower therefore signals a large IC50.
